From patent US20210122730A1, “GLUCOCORTICOID RECEPTOR MODULATORS” (ORIC Pharmaceuticals, Inc., priority 2017, published 2021)

Columns and labels:
GR = target: T1, GR (Homo sapiens, UniProt P04150); test: In Vitro GR Luciferase Reporter Assay (antagonist mode, CHO-K1-GR-MMTV-Luc reporter cells); type: cell-based; conditions: antagonist mode, 10 nM Dexamethasone
T1 construct: expressed in transfected cells; host or cells: CHO-K1
T1 sequence (P04150 1-777): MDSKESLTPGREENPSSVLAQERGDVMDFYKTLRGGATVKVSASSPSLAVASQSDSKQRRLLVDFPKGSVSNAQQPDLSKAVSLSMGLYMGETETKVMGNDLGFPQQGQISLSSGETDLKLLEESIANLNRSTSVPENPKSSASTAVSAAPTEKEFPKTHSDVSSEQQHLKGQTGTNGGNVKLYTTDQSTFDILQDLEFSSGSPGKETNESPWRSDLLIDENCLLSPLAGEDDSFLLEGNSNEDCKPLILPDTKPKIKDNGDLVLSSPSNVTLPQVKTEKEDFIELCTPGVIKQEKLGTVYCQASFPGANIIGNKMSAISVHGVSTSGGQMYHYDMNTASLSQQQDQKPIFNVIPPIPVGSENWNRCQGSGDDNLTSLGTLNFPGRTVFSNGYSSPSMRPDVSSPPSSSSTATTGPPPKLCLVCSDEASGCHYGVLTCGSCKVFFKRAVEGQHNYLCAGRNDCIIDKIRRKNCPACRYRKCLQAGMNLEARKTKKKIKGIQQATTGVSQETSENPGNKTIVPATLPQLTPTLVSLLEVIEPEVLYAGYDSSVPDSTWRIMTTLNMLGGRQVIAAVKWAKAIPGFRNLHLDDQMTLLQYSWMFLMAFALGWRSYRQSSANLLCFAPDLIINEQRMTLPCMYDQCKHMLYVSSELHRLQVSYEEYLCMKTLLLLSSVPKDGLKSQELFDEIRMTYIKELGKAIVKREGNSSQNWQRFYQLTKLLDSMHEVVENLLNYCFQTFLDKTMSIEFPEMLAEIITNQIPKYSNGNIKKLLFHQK
Method in brief: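 CHO-K1-GR-MMTV-Luc cells in phenol red-free DMEM with 10% CSS, stimulated with 10 nM dexamethasone (final) and treated with 8-point 1:5 compound dilutions for about 18-24 h at 37° C. Luciferase measured by OneGlo luminescence; IC50 derived for inhibition of GR activity.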

CYP2C8 = target: T2, CYP2C8 (Homo sapiens, UniProt P10632); test: CYP Inhibition Assay (CYP2C8, human liver microsomes, paclitaxel substrate); type: in vitro ADME; conditions: pH 7.4; pooled human liver microsomes 0.1 mg/mL, probe substrate paclitaxel
T2 construct: Pooled human microsomes were obtained from Sekisui XenoTech, KS; tissue Sekisui XenoTech, KS; host or cells: pooled human liver microsomes
T2 sequence (P10632 1-490): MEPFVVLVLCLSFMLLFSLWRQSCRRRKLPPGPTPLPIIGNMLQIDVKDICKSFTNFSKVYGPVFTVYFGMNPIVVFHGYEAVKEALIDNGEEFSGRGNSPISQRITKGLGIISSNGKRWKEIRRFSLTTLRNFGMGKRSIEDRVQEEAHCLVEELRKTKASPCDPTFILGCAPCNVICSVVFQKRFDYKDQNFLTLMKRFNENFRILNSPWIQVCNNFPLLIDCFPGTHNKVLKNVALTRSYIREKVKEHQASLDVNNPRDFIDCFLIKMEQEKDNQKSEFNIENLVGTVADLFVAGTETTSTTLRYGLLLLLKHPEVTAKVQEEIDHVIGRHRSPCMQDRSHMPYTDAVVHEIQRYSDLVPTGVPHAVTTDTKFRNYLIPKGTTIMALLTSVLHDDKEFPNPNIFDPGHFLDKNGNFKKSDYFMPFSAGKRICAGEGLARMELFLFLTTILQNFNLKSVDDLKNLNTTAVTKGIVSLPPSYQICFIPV
Method in brief: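 Pooled human liver microsomes (0.1 mg/mL) in 50 mM potassium phosphate pH 7.4 with compound, started with 1 mM NADPH, 5 min at 37° C, duplicate.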

Row | SMILES | IC50 (GR) | inhibition at 5 min (CYP2C8)
1 | Cn1ccc(S(=O)(=O)N(C2CC(F)(F)C2)[C@H]2CCC3=Cc4c(cnn4-c4ccc(F)cc4)C[C@]3(C(=O)c3cc(Cl)ccn3)C2)n1 [Example 349, N-((4aS,6S)-4a-(4-chloropicolinoyl)-1-(4-fluorophenyl)-4,4a,5,6,7,8-hexahydro-1H-benzo[f]indazol-6-yl)-N-(3,3-difluorocyclobutyl)-1-methyl-1H-pyrazole-3-sulfonamide] | ≤ 100 nM | 25 to 50%
2 | Cn1cnc(S(=O)(=O)N(C2CC(F)(F)C2)[C@H]2CCC3=Cc4c(cnn4-c4ccc(F)cc4)C[C@]3(C(=O)c3cc(F)ccn3)C2)n1 [Example 354, N-(3,3-difluorocyclobutyl)-N-((4aS,6S)-1-(4-fluorophenyl)-4a-(4-fluoropicolinoyl)-4,4a,5,6,7,8-hexahydro-1H-benzo[f]indazol-6-yl)-1-methyl-1H-1,2,4-triazole-3-sulfonamide] | ≤ 100 nM | 25 to 50%
3 | Cn1cnc(S(=O)(=O)N(C2CC(F)(F)C2)[C@H]2CCC3=Cc4c(cnn4-c4ccc(F)cc4)C[C@]3(C(=O)c3cc(Cl)ccn3)C2)n1 [Example 355, N-((4aS,6S)-4a-(4-chloropicolinoyl)-1-(4-fluorophenyl)-4,4a,5,6,7,8-hexahydro-1H-benzo[f]indazol-6-yl)-N-(3,3-difluorocyclobutyl)-1-methyl-1H-1,2,4-triazole-3-sulfonamide] | ≤ 100 nM | ≤ 25%
4 | CCN([C@H]1CCC2=Cc3c(cnn3-c3ccc(F)cc3)C[C@]2(C(=O)c2ncc(C(F)(F)F)s2)C1)S(=O)(=O)c1ncn(C)n1 [Example 356, N-ethyl-N-((4aS,6S)-1-(4-fluorophenyl)-4a-(5-(trifluoromethyl)thiazole-2-carbonyl)-4,4a,5,6,7,8-hexahydro-1H-benzo[f]indazol-6-yl)-1-methyl-1H-1,2,4-triazole-3-sulfonamide] | ≤ 100 nM | 25 to 50%
5 | CCN([C@H]1CCC2=Cc3c(cnn3-c3ccc(F)cc3)C[C@]2(C(=O)c2cc(C(F)(F)F)ccn2)C1)S(=O)(=O)c1ncn(C)n1 [Example 357, N-ethyl-N-((4aS,6S)-1-(4-fluorophenyl)-4a-(4-(trifluoromethyl)picolinoyl)-4,4a,5,6,7,8-hexahydro-1H-benzo[f]indazol-6-yl)-1-methyl-1H-1,2,4-triazole-3-sulfonamide] | ≤ 100 nM | ≤ 25%
6 | Cn1cnc(S(=O)(=O)N(C2CC2)[C@H]2CCC3=Cc4c(cnn4-c4ccc(F)cc4)C[C@]3(C(=O)c3cc(Cl)ccn3)C2)c1 [Example 363, N-((4aS,6S)-4a-(4-chloropicolinoyl)-1-(4-fluorophenyl)-4,4a,5,6,7,8-hexahydro-1H-benzo[f]indazol-6-yl)-N-cyclopropyl-1-methyl-1H-imidazole-4-sulfonamide] | ≤ 100 nM | 25 to 50%
7 | Cn1cnc(S(=O)(=O)[C@H]2CCC3=Cc4c(cnn4-c4ccc(F)cc4)C[C@]3(C(=O)c3ccc(C(F)(F)F)cn3)C2)n1 [Example 374, ((4aS,6S)-1-(4-fluorophenyl)-6-((1-methyl-1H-1,2,4-triazol-3-yl)sulfonyl)-1,4,5,6,7,8-hexahydro-4aH-benzo[f]indazol-4a-yl)(5-(trifluoromethyl)pyridin-2-yl)methanone] | ≤ 100 nM | ≤ 25%
8 | Cn1cnc(S(=O)(=O)CC2CCC3=Cc4c(cnn4-c4ccc(F)cc4)C[C@]3(C(=O)c3cc(C(F)(F)F)ccn3)C2)n1 (stereo partly drawn) [Example 377, ((4aR)-1-(4-fluorophenyl)-6-(((1-methyl-1H-1,2,4-triazol-3-yl)sulfonyl)methyl)-1,4,5,6,7,8-hexahydro-4aH-benzo[f]indazol-4a-yl)(4-(trifluoromethyl)pyridin-2-yl)methanone] | ≤ 100 nM | 25 to 50%

The next lines start with the values.

Row | IC50 (GR) | inhibition at 5 min (CYP2C8) | SMILES
9 | ≤ 100 nM | 25 to 50% | Cn1cc(S(=O)(=O)N(CC(F)F)[C@H]2CCC3=Cc4c(cnn4-c4ccc(F)cc4)C[C@]3(C(=O)c3ncc(C(F)(F)F)s3)C2)nn1 [Example 350, N-(2,2-difluoroethyl)-N-((4aS,6S)-1-(4-fluorophenyl)-4a-(5-(trifluoromethyl)thiazole-2-carbonyl)-4,4a,5,6,7,8-hexahydro-1H-benzo[f]indazol-6-yl)-1-methyl-1H-1,2,3-triazole-4-sulfonamide]
10 | ≤ 100 nM | 25 to 50% | CCN([C@H]1CCC2=Cc3c(cnn3-c3ccc(F)cc3)C[C@]2(C(=O)c2cc(F)ccn2)C1)S(=O)(=O)c1ncn(C)n1 [Example 358, N-ethyl-N-((4aS,6S)-1-(4-fluorophenyl)-4a-(4-fluoropicolinoyl)-4,4a,5,6,7,8-hexahydro-1H-benzo[f]indazol-6-yl)-1-methyl-1H-1,2,4-triazole-3-sulfonamide]
11 | ≤ 100 nM | 25 to 50% | CCN([C@H]1CCC2=Cc3c(cnn3-c3ccc(F)cc3)C[C@]2(C(=O)c2cc(Cl)ccn2)C1)S(=O)(=O)c1ncn(C)n1 [Example 359, N-((4aS,6S)-4a-(4-chloropicolinoyl)-1-(4-fluorophenyl)-4,4a,5,6,7,8-hexahydro-1H-benzo[f]indazol-6-yl)-N-ethyl-1-methyl-1H-1,2,4-triazole-3-sulfonamide]
12 | ≤ 100 nM | ≤ 25% | Cn1ccc(S(=O)(=O)N([C@H]2CCC3=Cc4c(cnn4-c4ccc(F)cc4)C[C@]3(C(=O)c3ncc(C(F)(F)F)s3)C2)[C@H]2C[C@](O)(C(F)(F)F)C2)n1 [Example 366, N-((4aS,6S)-1-(4-fluorophenyl)-4a-(5-(trifluoromethyl)thiazole-2-carbonyl)-4,4a,5,6,7,8-hexahydro-1H-benzo[f]indazol-6-yl)-N-((1s,3R)-3-hydroxy-3-(trifluoromethyl)cyclobutyl)-1-methyl-1H-pyrazole-3-sulfonamide]
13 | ≤ 100 nM | 25 to 50% | Cn1cnc(S(=O)(=O)N(CC(F)(F)F)[C@H]2CCC3=Cc4c(cnn4-c4ccc(F)cc4)C[C@]3(C(=O)c3ncc(C(F)(F)F)s3)C2)n1 [Example 367, N-((4aS,6S)-1-(4-fluorophenyl)-4a-(5-(trifluoromethyl)thiazole-2-carbonyl)-4,4a,5,6,7,8-hexahydro-1H-benzo[f]indazol-6-yl)-1-methyl-N-(2,2,2-trifluoroethyl)-1H-1,2,4-triazole-3-sulfonamide]
14 | ≤ 100 nM | 25 to 50% | Cn1ccc(S(=O)(=O)N([C@H]2CCC3=Cc4c(cnn4-c4ccc(F)cc4)C[C@]3(C(=O)c3ncc(C(F)(F)F)s3)C2)[C@H]2C[C@@](O)(C(F)(F)F)C2)n1 [Example 368, N-((4aS,6S)-1-(4-fluorophenyl)-4a-(5-(trifluoromethyl)thiazole-2-carbonyl)-4,4a,5,6,7,8-hexahydro-1H-benzo[f]indazol-6-yl)-N-((1r,3S)-3-hydroxy-3-(trifluoromethyl)cyclobutyl)-1-methyl-1H-pyrazole-3-sulfonamide]
15 | ≤ 100 nM | 25 to 50% | CO[C@]1(C)C[C@H](N([C@H]2CCC3=Cc4c(cnn4-c4ccc(F)cc4)C[C@]3(C(=O)c3cc(F)ccn3)C2)S(=O)(=O)c2ccn(C)n2)C1 [Example 371, N-((4aS,6S)-1-(4-fluorophenyl)-4a-(4-fluoropicolinoyl)-4,4a,5,6,7,8-hexahydro-1H-benzo[f]indazol-6-yl)-N-((1s,3R)-3-methoxy-3-methylcyclobutyl)-1-methyl-1H-pyrazole-3-sulfonamide]
16 | ≤ 100 nM | 50 to 75% | Cn1cc(S(=O)(=O)N(CC(F)F)[C@H]2CCC3=Cc4c(cnn4-c4ccc(F)cc4)C[C@]3(C(=O)c3cc(F)ccn3)C2)nn1 [Example 373, N-(2,2-difluoroethyl)-N-((4aS,6S)-1-(4-fluorophenyl)-4a-(4-fluoropicolinoyl)-4,4a,5,6,7,8-hexahydro-1H-benzo[f]indazol-6-yl)-1-methyl-1H-1,2,3-triazole-4-sulfonamide]
